{"source": "patent US9593146B2", "about": "“CD44v6-derived peptides for treating metastasizing cancer” (AMCURE GMBH, priority 2012, dated 2017)", "key": {"Met and ERK": {"test_system": "Met and ERK", "assay": "HGF induced activation of Met and ERK in L3.6pl cells (Western blot)", "format": "cell-based, human", "settings": "L3.6pl cells, peptide prior to induction with 10 ng/ml HGF", "procedure": "Serum-starved cells (24 hours) were induced with the growth factor HGF (10 ng/mL) at 37° C. for 5 minutes. Where indicated, the cells were treated with peptides (100 ng/ml) prior to induction at 37° C. for 10 minutes (100 ng/mL CD44v6 peptide or control peptide). Following the induction with HGF, cells were washed with ice-cold phosphate-buffered saline (PBS). To detect activated Met and Erk, cells were lysed in sodium dodecyl sulfate (SDS)-sample buffer containing 100 mM dithiothreitol (DTT), boiled and subjected to western blot analysis using antibodies against phospho-Met and ERK. The loading controls were performed on the same blot after stripping (62.5 mM Tris, pH 6.8, 2% SDS, 0.8% DTT) by probing with the Met respectively ERK antibody. Blots were stained using the enhanced chemiluminescence system (Thermo Fisher Scientific, Schwerte, Germany). Bands in western blot analysis were quantified with the program Image J (National Institutes of Health)."}, "ErbB receptors": {"test_system": "ErbB receptors", "assay": "ErbB ligand induced Erk-kinase phosphorylation in HT29 cells", "format": "cell-based, human", "settings": "HT29, 100 ng/ml peptide 5 min, 20 ng/ml ligand", "procedure": "FIG. 15: In contrast to EGF and ER, induction of the ErbB-receptors via TGF-α, BC, Her, HB-EGF or AR is completely independent of CD44v6. Serum-starved HT29 cells were pre-incubated for 5 min with 100 ng/ml of a CD44v6-specific peptide (human v6 14mer) or a control peptide. Afterwards the cells were induced with 20 ng/ml of various ErbB ligands as indicated. The cell lysates were resolved by SDS-PAGE. Western-blotting was used to detect ErbB ligands-induced Erk-kinase phopshorylation.\nFor this purpose HT29 cells were serum-starved for 24 hours and pre-treated with the v6-specific or a control peptide. They were then induced with the indicated ErbB ligands. Erk-kinase phosphorylation was used as a read-out for receptor activation. All ligands could activate the Erk-kinase. […] These ligands are independent of CD44v6 for their induction of the ErbB receptors. This is especially striking, since EGF and TGF-α address the same receptor pairs (ErbB1/1 or ErbB1/2)."}}}
{"sequence": "KEQWFGNRWHEGYR [human 14mer, human CD44v6 14mer peptide]", "values": [{"measurement": "Phosphorylation of Met and ERK", "setting": "Met and ERK", "value": "inhibited"}, {"measurement": "AR, BC, HB-EGF and TGF-α-induced activation of the ErbB receptors", "setting": "ErbB receptors", "value": "could not be inhibited"}, {"measurement": "EGF- and ER-dependent Erk phosphorylation", "setting": "ErbB receptors", "value": "inhibited"}]}
